# Patent publication US20230286925A1, “PHENYL TRIAZOLE MLL1-WDR5 PROTEIN-PROTEIN INTERACTION INHIBITOR” (HUYABIO International, LLC, priority 2022, published 2023)
# Where two headings read alike, the source gives them in different places.
# How the values were obtained:
# MV-411 cells = experiment: Anti-proliferative activity against leukemia cells (CellTiterGlo viability, 72 hrs); type: cell-based
# Procedure: Procedure: MV-411 or Molm-13 cells were seeded into 384 well plates at 2000 cells/well density in 50 uL according plate map and were allowed to naturally sediment by waiting about 30 min in Clean Bench. Next, plated cells were centrifuged for 1 min at 1000 rpm and the excess cells were transferred into the flasks for further culture. Cells in the assay plates were incubated (at least 4 hrs) at 37° C., 5% CO2 for next process followed by adding the compounds as the plate map indicated. The tests were performed in duplicates with treatment of compounds at 10 pts 3 fold titration in 384 well plates. Taxol was as positive control while DMSO as negative control. To rule out edge effect, the wells on the edge were not seeded and therefore one 384 well plate holds 13 compounds. Cells viability was measured 72 hrs after incubation with compounds and using CellTiterGlo (promega) viability assay according to manufactory's instruction to check the ATP production in each well.
# Experiments on anti-proliferative activity against leukemia cells were conducted with some of the compounds of the invention.
# [1] = molecular target: MLL1-WDR5 protein-protein interaction (Homo sapiens (Human), UniProt P61964); experiment: WDR5 TR-FRET assay of inhibition against MLL1-WDR5 protein-protein interaction; type: binding
# Procedure: WDR5 TR-FRET Assay Procedure: Stock compounds were transferred to the assay plate by Echo Liquid Handler. Reactions were performed in the assay buffer (1×PBS, 300 mM NaCl, 0.5 mM TCEP, 0.1% CHAPS) containing 5 nM WDR5 protein, 10 nM peptide (Ac-ARTEVHLRKS-[Ahx-Ahx] [C]-Alexa Fluor 488-NH2) and 0.25 nM Tb-anti His antibody (Tb-Ab) in 384-well white plate (PerkinElmer) with a final volume of 20 μl. Compounds were incubated with WDR5 protein for 30 min at room temperature. Plates were covered, protected from light and incubated for 60 min at room temperature after adding the peptide and Tb-Ab. EnVision Multimode Plate Reader (PerkinElmer) was used for the TR-FRET assay with excitation wavelength at 340 nm and emission wavelength at 495 and 520 nm. The ratio of the 520/495 wavelengths were used to assess the degree of the FRET signal. IC50 was calculated by fitting the inhibition data using XLfit software to sigmoidal dose-response model.
# Biphenyl compound DDO-2084 was reported to be a small molecule inhibitor that can inhibit MLL1-WDR5 protein-protein interaction, reduce MLL1 enzyme catalytic activity, and downregulate the expression of Hox and Meis-1 genes (Eur. J. Med. Chem. 2016, 124, 480-489). DDO-2084 is used as a positive control compound.
# [2] = MV4-11, MV-411 human acute monocytic leukemia cell, Table 7
# [3] = Table 7, read-out: WDR5 TR-FRET Assay (IC50 nM)
# [4] = MV4-11, MV-411 human acute monocytic leukemia cell, Table 6
# [5] = WDR5 TR-FRET, 5 nM WDR5 protein, 10 nM peptide, read-out: MLL1-WDR5 PPI inhibitory activity
SMILES,GI50 (MV-411 cells; [2]) [µM],"IC50 [1, 3] [nM]",GI50 (MV-411 cells; [4]) [µM],"IC50 [1, 5] [nM]","GI50 (MV-411 cells; MV-411 human acute monocytic leukemia cell, Table 6) [µM]"
"C[C@@H]1CN(c2ncc(-c3cc(Nc4ncnc(Cl)c4N)c(N4CCN(C)[C@@H](C)C4)cc3F)cn2)C[C@H](C)O1 [DDO-2213_023, 6-chloro-N4-(5-(2-((2S,6R)-2,6-dimethylmorpholino)pyrimidin-5-yl)-2-((S)-3,4-dimethylpiperazin-1-yl)-4-fluorophenyl)pyrimidine-4,5-diamine]",2.79,3.56,–,–,–
"C[C@@H]1CN(c2cc(F)c(-c3ccnc(N4CCO[C@@H](C)C4)n3)cc2Nc2ncnc(Cl)c2N)C[C@H](C)N1C [DDO-2213_029, 6-chloro-N4-(4-fluoro-5-(2-((S)-2-methylmorpholino)pyrimidin-4-yl)-2-((3S,5R)-3,4,5-trimethylpiperazin-1-yl)phenyl)pyrimidine-4,5-diamine]",17.2,12.9,–,–,–
"C[C@@H]1CN(c2cc(F)c(C3=CCCN(c4ncc(CN5CCOCC5)cn4)C3)cc2Nc2ncnc(Cl)c2N)C[C@H](C)N1C [DDO-2213_026, 6-chloro-N^4-(4-fluoro-5-(1-(5-(morpholinomethyl)pyrimidin-2-yl)-1,2,5,6-tetrahydropyridin-3-yl)-2-((3S,5R)-3,4,5-trimethylpiperazin-1-yl)phenyl)pyrimidine-4,5-diamine]",12.7,18.6,–,–,–
Cc1c(F)c(N)cc(C(=O)Nc2cc(-n3cc(C(=O)NCCCN4CCOCC4)nn3)ccc2N2C[C@@H](C)N(C)[C@@H](C)C2)c1Cl [HYBI_021],–,–,25.1,7.09,–
CN1CCN(c2ccc(-n3cc(C(=O)NCCCN4CCOCC4)nn3)cc2NC(=O)c2nn(C)c3ccccc23)CC1 [HYBI_050],–,–,10.7,5560,–
Cc1c(F)c(N)cc(C(=O)Nc2cc(-n3cc(C(=O)N4CCN(C)CC4)nn3)c(F)cc2N2C[C@@H](C)N(C)[C@@H](C)C2)c1Cl [HYBI_084],–,–,3.35,4.72,–
Cc1c(F)c(N)cc(C(=O)Nc2cc(-n3cc(C(=O)NCCCN4CCOCC4)nn3)c(F)cc2N2CCN(C)C(C)C2)c1Cl (centres unmarked) [HYBI_027],–,–,20,10.8,–
Cc1cc(C(=O)Nc2cc(-n3cc(C(=O)NCCCN4CCOCC4)nn3)ccc2N2CCN(C)CC2)cc(C)c1F [HYBI_037],–,–,8.38,109,–
Cc1c(F)c(N)cc(C(=O)Nc2cc(-n3cc(C(=O)NC4CCOCC4)nn3)c(F)cc2N2C[C@@H](C)N(C)[C@@H](C)C2)c1Cl [HYBI_086],–,–,19.7,3.99,–
CCN(CC)C(=O)c1cn(-c2cc(NC(=O)c3cc(N)c(F)c(C)c3Cl)c(N3C[C@@H](C)N(C)[C@@H](C)C3)cc2F)nn1 [HYBI_082],–,–,–,4.91,2.4
Cc1c(F)c([N+](=O)[O-])cc(C(=O)Nc2cc(-n3cc(C(=O)NCCCN4CCOCC4)nn3)ccc2N2CCN(C)CC2)c1Cl [HYBI_039],–,–,0.108,131,–
"C[C@@H]1CN(c2cc(F)c(-c3ccc(NC(=O)C4CCCCC4)cc3)cc2Nc2ncnc(Cl)c2N)C[C@H](C)N1C [DDO-2213_006, N-(5′-((5-amino-6-chloropyrimidin-4-yl)amino)-2′-fluoro-4′-((3S,5R)-3,4,5-trimethylpiperazin-1-yl)-[1,1′-biphenyl]-4-yl)cyclohexanecarboxamide]",6.09,38.6,–,–,–
"C[C@@H]1CN(c2ccc(-c3cc(CNC4CCCCC4)ccc3F)cc2Nc2ncnc(Cl)c2N)C[C@H](C)N1C [DDO-2213_030, 6-chloro-N4-(5′-((cyclohexylamino)methyl)-2′-fluoro-4-((3S,5R)-3,4,5-trimethylpiperazin-1-yl)-[1,1′-biphenyl]-3-yl)pyrimidine-4,5-diamine]",2.43,418,–,–,–
CN1CCN(c2ccc(-n3cc(C(=O)NCCCN4CCOCC4)nn3)cc2NC(=O)c2ccc(F)c([N+](=O)[O-])c2)CC1 [HYBI_040],–,–,0.21,828,–
"CCCC(=O)Nc1ccc(-c2cc(Nc3ncnc(Cl)c3N)c(N3C[C@@H](C)N(C)[C@@H](C)C3)cc2F)cc1 [DDO-2213_007, N-(5′-((5-amino-6-chloropyrimidin-4-yl)amino)-2′-fluoro-4′-((3S,5R)-3,4,5-trimethylpiperazin-1-yl)-[1,1′-biphenyl]-4-yl)butyramide]",11.5,51.3,–,–,–
Cc1c(F)c(N)cc(C(=O)Nc2cc(-n3cc(C(=O)NCCCN4CCOCC4)nn3)c(F)cc2N2C[C@@H](C)N(C)[C@@H](C)C2)c1Cl [HYBI_028],–,–,30.9,5.24,–
"C[C@@H]1CN(c2cc(F)c(-n3cc(C(=O)N4CCOCC4)nn3)cc2Nc2ncnc(Cl)c2N)C[C@H](C)N1C [DDO-2213_010, (1-(5-((5-amino-6-chloropyrimidin-4-yl)amino)-2-fluoro-4-((3S,5R)-3,4,5-trimethylpiperazin-1-yl)phenyl)-1H-1,2,3-triazol-4-yl)(morpholino)methanone]",7.93,250,–,–,–
"C[C@@H]1CN(c2cc(F)c(-c3cccc(CN4CCOCC4)c3)cc2Nc2ncnc(Cl)c2N)C[C@H](C)N1C [DDO-2213_019, 6-chloro-N4-(6-fluoro-3′-(morpholinomethyl)-4-((3S,5R)-3,4,5-trimethylpiperazin-1-yl)-[1,1′-biphenyl]-3-yl)pyrimidine-4,5-diamine]",6.98,215,–,–,–
"CN1CCCN(c2cc(F)c(-c3ccc(C(=O)N(C)C)cc3)cc2Nc2ncnc(Cl)c2N)CC1 [DDO-2213_003, 5′-((5-amino-6-chloropyrimidin-4-yl)amino)-2′-fluoro-N,N-dimethyl-4′-(4-methyl-1,4-diazepan-1-yl)-[1,1′-biphenyl]-4-carboxamide]",59.9,395,–,–,–
"C[C@H]1CN(c2ccc(-c3ccc(C(=O)NCCN4CCOCC4)cc3)c(F)c2Nc2ncnc(Cl)c2N)CCN1C [DDO-2213_012, (S)-3′-((5-amino-6-chloropyrimidin-4-yl)amino)-4′-(3,4-dimethylpiperazin-1-yl)-2′-fluoro-N-(2-morpholinoethyl)-[1,1′-biphenyl]-4-carboxamide]",104,56.4,–,–,–
Cc1c(F)c(N)cc(C(=O)Nc2cc(-n3cc(C(=O)NCC4CCCCC4)nn3)c(F)cc2N2C[C@@H](C)N(C)[C@@H](C)C2)c1Cl [HYBI_110],–,–,25,3,–
Cc1c(F)c(N)cc(C(=O)Nc2cc(-n3cc(C(=O)NCCCN4CCOCC4)nn3)ccc2N2CCN(C)[C@@H](C)C2)c1Cl [HYBI_020],–,–,8.36,8.23,–
"C[C@@H]1CN(c2cc(F)c(-c3ccc(CN4CCOCC4)cc3)cc2Nc2ncnc(Cl)c2N)C[C@H](C)N1C [DDO-2213_018, 6-chloro-N4-(6-fluoro-4′-(morpholinomethyl)-4-((3S,5R)-3,4,5-trimethylpiperazin-1-yl)-[1,1′-biphenyl]-3-yl)pyrimidine-4,5-diamine]",10.8,110,–,–,–
"C[C@@H]1CN(c2cc(F)c(-c3ccnc(N4CCOCC4)n3)cc2Nc2ncnc(Cl)c2N)C[C@H](C)N1C [DDO-2213_024, 6-chloro-N4-(4-fluoro-5-(2-morpholinopyrimidin-4-yl)-2-((3S,5R)-3,4,5-trimethylpiperazin-1-yl)phenyl)pyrimidine-4,5-diamine]",18.5,15,–,–,–
Cc1c(F)c(N)cc(C(=O)Nc2cc(-n3cc(C(=O)NCCCN4CCOCC4)nn3)ccc2N2CCCN(C)CC2)c1Cl [HYBI_022],–,–,17.2,62.3,–
